Measurements from PubChem BioAssay AID298 (DTP/NCI, 2004).
“And” between values parts separate entries of the source, which are not always exact repeats. Equal values may be shown once. Results filed as inconclusive are left out.

System: MX-1 breast xenograft, intrarenal, nude mice, tumor weight
Assay: NCI In Vivo Anticancer Drug Screen. Data for tumor model Human Mammary Carcinoma MX-1 Xenograft (intrarenal inoculation) in NU/NU BALB/C (nude) mice
Settings: endpoint: mean tumor weight change, higher = larger tumour
Summary of the method: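 Mice w/ transplanted tumors, drug vs vehicle; endpoint survival or tumor size; value = T/C.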

[1] = dose: 100.0 mg/kg/injection, schedule: Q04DX003 (ip), vehicle: saline with Tween-80
[2] = dose: 200.0 mg/kg/injection, schedule: Q04DX003 (ip), vehicle: saline with Tween-80

CC(=O)O[C@H]1C(=O)[C@@]2(C)C(C(OC(=O)c3ccccc3)[C@]3(O)C[C@H](OC(=O)C(OC(=O)CCCC(=O)NCCCN(C)C)C(NC(=O)c4ccccc4)c4ccccc4)C(C)=C1C3(C)C)C1(OC(C)=O)COC1C[C@@H]2O (stereo partly drawn)
T/C (dose: 2.5 mg/kg/injection, schedule: Q01DX009 (ip), vehicle: water): 22 % of control | T/C (dose: 5.0 mg/kg/injection, schedule: Q01DX009 (ip), vehicle: water): 1 % of control | T/C (dose: 10.0 mg/kg/injection, schedule: Q01DX009 (ip), vehicle: water): 1 % of control | T/C (dose: 20.0 mg/kg/injection, schedule: Q01DX009 (ip), vehicle: water): -100 % of control | T/C (dose: 40.0 mg/kg/injection, schedule: Q01DX009 (ip), vehicle: water): -100 % of control

CC(=O)CC(=O)CCC(=O)O
T/C (dose: 300.0 mg/kg/injection, schedule: Q04DX003 (sc), vehicle: saline): 88 % of control | T/C (dose: 1200.0 mg/kg/injection, schedule: Q04DX003 (sc), vehicle: saline): 78 % of control

OC1OC2COC(c3ccccc3)OC2C(O)C1O (stereo not drawn)
T/C (dose: 300.0 mg/kg/injection, schedule: Q04DX003 (sc), vehicle: water): 57 % of control | T/C (dose: 600.0 mg/kg/injection, schedule: Q04DX003 (sc), vehicle: water): 91 % of control | T/C (dose: 1200.0 mg/kg/injection, schedule: Q04DX003 (sc), vehicle: water): 91 % of control | T/C (dose: 2400.0 mg/kg/injection, schedule: Q04DX003 (sc), vehicle: water): 105 % of control

CC(=O)C(=O)O.CC(=O)C(=O)O.[NH-]C1CCCCC1[NH-].[Pt+2] (stereo not drawn)
T/C (dose: 12.5 mg/kg/injection, schedule: Q04DX003 (sc), vehicle: other): 72 % of control | T/C (dose: 25.0 mg/kg/injection, schedule: Q04DX003 (sc), vehicle: other): 17 % of control | T/C (dose: 50.0 mg/kg/injection, schedule: Q04DX003 (sc), vehicle: other): -78 % of control

O=P(O)(NCCCl)NCCCl
T/C (dose: 37.5 mg/kg/injection, schedule: Q04DX003 (sc), vehicle: saline): 31 % of control

NC(CCl)=NCC12CC3CC(CC(C3)C1)C2
T/C (dose: 37.5 mg/kg/injection, schedule: Q04DX003 (sc), vehicle: Klucel (hydroxypropylcellulose) (HPC)): 102 % of control | T/C (dose: 75.0 mg/kg/injection, schedule: Q04DX003 (sc), vehicle: Klucel (hydroxypropylcellulose) (HPC)): 104 % of control

NC(Cc1ccc(N(CCCl)Cc2ccccc2)cc1)C(=O)O (stereo not drawn)
T/C [1]: 6 % of control and 14 % of control | T/C (dose: 120.0 mg/kg/injection, schedule: Q04DX003 (ip), vehicle: saline with Tween-80): 3 % of control | T/C [2]: 7 % of control and -15 % of control | T/C (dose: 333.33 mg/kg/injection, schedule: Q04DX003 (ip), vehicle: saline with Tween-80): -90 % of control

ClCCCN1CCCCC1CCl (stereo not drawn)
T/C (dose: 6.25 mg/kg/injection, schedule: Q04DX003 (sc), vehicle: saline): 53 % of control | T/C (dose: 12.5 mg/kg/injection, schedule: Q04DX003 (sc), vehicle: saline): 3 % of control | T/C (dose: 25.0 mg/kg/injection, schedule: Q04DX003 (sc), vehicle: saline): -13 % of control

C#CCN(Cc1ccc2nc(N)[nH]c(=O)c2c1)c1ccc(C(=O)NC(CCC(=O)O)C(=O)O)cc1 (stereo not drawn)
T/C (dose: 75.0 mg/kg/injection, schedule: Q04DX003 (ip), vehicle: water): 111 % of control | T/C (dose: 150.0 mg/kg/injection, schedule: Q04DX003 (ip), vehicle: water): 74 % of control | T/C (dose: 300.0 mg/kg/injection, schedule: Q04DX003 (ip), vehicle: water): 72 % of control

OC1OCC(COc2ccc(Cl)cc2)OC1O (stereo not drawn)
T/C [1]: 78 % of control | T/C [2]: 75 % of control | T/C (dose: 400.0 mg/kg/injection, schedule: Q04DX003 (ip), vehicle: saline with Tween-80): 92 % of control

Nc1ccn(C2OC(CO)C(O)C2O)c(=O)n1 (stereo not drawn)
T/C (dose: 500.0 mg/kg/injection, schedule: Q04DX003 (sc), vehicle: saline): 57 % of control | T/C (dose: 1000.0 mg/kg/injection, schedule: Q04DX003 (sc), vehicle: saline): 68 % of control

O=C(Oc1ccccc1)c1cc(O)c(O)c(O)c1
T/C (dose: 150.0 mg/kg/injection, schedule: Q04DX003 (ip), vehicle: saline): 101 % of control | T/C (dose: 300.0 mg/kg/injection, schedule: Q04DX003 (ip), vehicle: saline): 55 % of control

c1ccc2[nH]c(CN(CCN(Cc3nc4ccccc4[nH]3)Cc3nc4ccccc4[nH]3)Cc3nc4ccccc4[nH]3)nc2c1
T/C (dose: 6.25 mg/kg/injection, schedule: Q04DX003 (ip), vehicle: DMSO): 59 % of control and 68 % of control | T/C (dose: 50.0 mg/kg/injection, schedule: Q04DX003 (ip), vehicle: DMSO): 62 % of control

NC(=O)C1C=CN(Cc2ccccc2)C=C1
T/C [1]: 62 % of control | T/C [2]: 64 % of control
